The values that follow come from patent US20220217972A1, “Methods for cryopreservation of sub-millimeter and millimeter scale biological materials” (Regents of the University of Minnesota, priority 2021, published 2022).

Data set [1] relates to Drosophila melanogaster embryos. The data set is described as follows: Post cryopreservation survival (hatch rate and adult rate) of embryos. To be noted: strain M2; for post cryopreservation survival: replacing sorbitol as sugar in dehydration CPA. The class given is in vivo.
Procedure: Step 1. Embryo collection and staging. On day 1, 700-1200 flies at the age of 1-4 days old were used to collect embryos at room temperature. Usually 4 bottles of flies were used, 8 or more bottles were used if needed. Flies were placed in an empty Drosophila bottle covered with a mesh cloth as a cap (FIG. 2A). Embryos were collected in a 1 hour period on a grape juice plate smeared with yeast paste. The first hour collection served as an egg clean-up procedure for the female flies and were abandoned. Disturbance of flies was minimized during embryo collection. Grape juice plates with collected embryos were labeled with the end time point of collection, for instance, 3 pm was used to label the collection from 2 pm to 3 pm. Embryos were placed in a temperature incubator at 20.1±0.05° C. (Heratherm purchased from Thermo Scientific) until reaching the desired stage for cryopreservation. 20° C. was selected so that optimal embryo age for cryopreservation will be achieved during a normal work hour on the following day. In this work, embryo collection occurred in the afternoon and usually 2-4 collections were performed.
Step 2. Dechorionation and permeabilization. On day 2, embryos were washed off from the grape juice plate into a nylon mesh basket and dechorionated in 50% bleach for 2-4 minutes. After rinsing with running tap water for 1-2 minutes to remove excess bleach, embryos along with the mesh basket were briefly blotted on paper towel and placed in the cryobuffer (20 mM NaCl, 2.7 mM KCl, 10 mM Na2HPO4, 1.8 mM KH2PO4, 4 mM MgCl2, 13 mM MgSO4, 60 mM Glycine, 60 mM Glutamic acid and 5 mM Malic acid, pH6.8, sterilized by filtration) in a 35 mm petri dish. Embryos were examined under a dissecting microscope to confirm the removal of chorions. In addition, the gut morphology was evaluated to verify the embryo stage (FIG. 2B).
Before permeabilization, ˜4 ml isopropanol, mixture of D-limonene and heptane (4:1 v/v), and heptane alone were added to three separate 35 mm glass petri dishes in a fume hood. […]
Step 3. […] The percentage of embryos that shrunk was recorded. […]
Data set [2] has the same test system. The note with it: permeable CPAs compared under the same weight concentration; strain M2.
Procedure: (§1) CPA loading and dehydration. Right after permeabilization, a brush was used to break up clumps into individual embryos floating as a monolayer with minimal overlap (FIG. 2B). […] The embryos should remain floating in order to maintain access to oxygen. After 3 min, “wrinkles” on the embryo surface were observed under a dissecting microscope, indicating volumetric shrinkage (i.e., losing water) in response to higher external osmolarity (FIG. 2C). The percentage of embryos that shrunk was recorded. The 13 weight percent EG petri dish was then placed in a humid chamber. At 25 min, embryos were inspected under a dissecting microscope to confirm that they swelled back to their original shape, indicating EG had entered the embryos. The percentage of embryos that swelled back was recorded.
Next, the mesh basket was blotted and placed in 39 weight percent EG+9 weight percent sorbitol solution prepared in cryobuffer on ice (i.e., ˜4° C.) for 9 min This step dehydrates the embryos (i.e., water loss) thereby elevating the intra-embryonic EG concentration to favor vitrification and avoidance of devitrification during the rewarming processes. In general, 5-6 ml dehydration CPA was used in a 35 mm petri dish.
At this point, intra-embryonic CPA concentration was elevated through dehydration by placing the embryos in a high concentration CPA (i.e., ˜39 weight percent) at 4° C. […]
For data set [3] the test system is unchanged. The note with it: 13 weight percent EG in cryobuffer; shrink at 3 min, swelled back at 25 min; correct stage, properly permeabilized.
Procedure: as §1

For the compound `OC[C@H]1O[C@H](O[C@H]2O[C@H](CO)[C@@H](O)[C@H](O)[C@H]2O)[C@H](O)[C@@H](O)[C@@H]1O` [trehalose], the post cryopreservation survival entry in data set [1] was “did not affect post cryopreservation survival”.

Take `OCCO` [EG, ethylene glycol]: the “CPA toxicity (post dehydration survival)” value in data set [2] was “least CPA toxicity”. Moreover, in data set [1] (permeable CPAs compared under the same weight concentration), the survival post cryopreservation result is listed as “highest survival post cryopreservation”. In data set [3], the “embryos that shrink and swell” value is reported as above 90%.

With `C[S+](C)[O-]` [DMSO, dimethyl sulfoxide], the “CPA toxicity (post dehydration survival)” value in data set [2] is reported as “highest CPA toxicity”.

Turning to `OC[C@H]1O[C@@](CO)(O[C@H]2O[C@H](CO)[C@@H](O)[C@H](O)[C@H]2O)[C@@H](O)[C@@H]1O` [sucrose], the post cryopreservation survival result in data set [1] was “did not affect post cryopreservation survival”.
